The results in this text go back to ChEMBL document CHEMBL3045021, “Synthesis, antibacterial, and antifungal activities of biolabile (E)-1-(4-morpholinophenyl)-3-aryl-prop-2-en-1-ones” (2009).

Experiment [1] concerns Pseudomonas. The experiment can be described thus: Antimicrobial activity against Pseudomonas at 5 ug/disk after 24 hr by disk diffusion method. The format is functional. Conditions: read-out: IZ. (In general: In agar diffusion tests the substance spreads into inoculated agar from a disc or well.)
For experiment [2], the system named is Klebsiella pneumoniae. The experiment can be described thus: Antimicrobial activity against Klebsiella pneumoniae at 5 ug/disk after 24 hr by disk diffusion method. Conditions: read-out: IZ.
For experiment [3], the system named is Shigella flexneri. The experiment can be described thus: Antimicrobial activity against Shigella flexneri at 5 ug/disc after 24 hr by disk diffusion method. The format is functional. Conditions: read-out: IZ.
Experiment [4] relates to Salmonella typhi. The experiment can be described thus: Antimicrobial activity against Salmonella enterica subsp. enterica serovar Typhi at 5 ug/disk after 24 hr by disk diffusion method. The format is functional. The following applies: read-out: IZ.
The subject of experiment [5] is Vibrio cholerae. The experiment can be described thus: Antimicrobial activity against Vibrio cholerae at 5 ug/disc after 24 hr by disk diffusion method. The format is functional. Conditions: read-out: IZ.
Experiment [6] deals with Streptococcus. Nature of the experiment: Antimicrobial activity against beta-hemolytic Streptococcus at 5 ug/disk after 24 hr by disk diffusion method. It is filed as functional. The following applies: read-out: IZ.
Experiment [7] deals with Staphylococcus aureus. The experiment can be described thus: Antimicrobial activity against Staphylococcus aureus at 5 ug/disc after 24 hr by disk diffusion method. Conditions: read-out: IZ.
The test system of experiment [8] is Nannizzia gypsea. Nature of the experiment: Antimicrobial activity against Microsporum gypseum at 100 U/disk after 72 to 96 hr by disk diffusion method. It is filed as functional.
Experiment [9] has as its system Rhizopus. Nature of the experiment: Antimicrobial activity against Rhizopus at 100 U/disk after 72 to 96 hr by disk diffusion method. The format is functional.
Experiment [10] has as its system Mucor. Nature of the experiment: Antimicrobial activity against Mucor at 100 U/disk after 72 to 96 hr by disk diffusion method. The format is functional.
For experiment [11], the system named is Aspergillus flavus. Nature of the experiment: Antimicrobial activity against Aspergillus flavus at 100 U/disk after 72 to 96 hr by disk diffusion method. It is filed as functional.
The test system of experiment [12] is Salmonella typhi. Nature of the experiment: Antimicrobial activity against Salmonella enterica subsp. enterica serovar Typhi at 100 ppm after 24 hr by disk diffusion method. The format is functional.
Experiment [13] has as its system Vibrio cholerae. Nature of the experiment: Antimicrobial activity against Vibrio cholerae at 500 ppm after 24 hr by disk diffusion method. It is filed as functional. Conditions: read-out: IZ.
In experiment [14] the test system is Vibrio cholerae. The experiment can be described thus: Antimicrobial activity against Vibrio cholerae at 200 ppm after 24 hr by disk diffusion method. The following applies: read-out: IZ. The format is functional.
In experiment [15] the test system is Vibrio cholerae. The experiment can be described thus: Antimicrobial activity against Vibrio cholerae at 100 ppm after 24 hr by disk diffusion method. The format is functional.
In experiment [16] the test system is Streptococcus. The experiment can be described thus: Antimicrobial activity against beta-hemolytic Streptococcus at 500 ppm after 24 hr by disk diffusion method. The format is functional. The following applies: read-out: IZ.
Experiment [17] has as its system Streptococcus. The experiment can be described thus: Antimicrobial activity against beta-hemolytic Streptococcus at 200 ppm after 24 hr by disk diffusion method. It is filed as functional. Conditions: read-out: IZ.
Experiment [18] deals with Streptococcus. Nature of the experiment: Antimicrobial activity against beta-hemolytic Streptococcus at 100 ppm after 24 hr by disk diffusion method. The format is functional.
Experiment [19] deals with Staphylococcus aureus. Nature of the experiment: Antimicrobial activity against Staphylococcus aureus at 500 ppm after 24 hr by disk diffusion method. The format is functional. Conditions: read-out: IZ.
Experiment [20] relates to Staphylococcus aureus. Nature of the experiment: Antimicrobial activity against Staphylococcus aureus at 200 ppm after 24 hr by disk diffusion method. The format is functional. Conditions: read-out: IZ.
Experiment [21] concerns Staphylococcus aureus. Nature of the experiment: Antimicrobial activity against Staphylococcus aureus at 100 ppm after 24 hr by disk diffusion method. The format is functional.
For experiment [22], the system named is Nannizzia gypsea. Nature of the experiment: Antimicrobial activity against Microsporum gypseum at 100 ppm after 72 to 96 hr by disk diffusion method. The format is functional. Conditions: read-out: IZ.
The subject of experiment [23] is Rhizopus. The experiment can be described thus: Antimicrobial activity against Rhizopus at 500 ppm after 72 to 96 hr by disk diffusion method. It is filed as functional. Conditions: read-out: IZ.
Experiment [24] relates to Rhizopus. The experiment can be described thus: Antimicrobial activity against Rhizopus at 200 ppm after 72 to 96 hr by disk diffusion method. The format is functional. Conditions: read-out: IZ.
The test system of experiment [25] is Rhizopus. Nature of the experiment: Antimicrobial activity against Rhizopus at 100 ppm after 72 to 96 hr by disk diffusion method. The format is functional.
Experiment [26] relates to Mucor. The experiment can be described thus: Antimicrobial activity against Mucor at 500 ppm after 72 to 96 hr by disk diffusion method. The format is functional. Conditions: read-out: IZ.
Experiment [27] has as its system Mucor. The experiment can be described thus: Antimicrobial activity against Mucor at 200 ppm after 72 to 96 hr by disk diffusion method. It is filed as functional. The following applies: read-out: IZ.
For experiment [28], the system named is Mucor. The experiment can be described thus: Antimicrobial activity against Mucor at 100 ppm after 72 to 96 hr by disk diffusion method. The format is functional.
For experiment [29], the system named is Aspergillus flavus. Nature of the experiment: Antimicrobial activity against Aspergillus flavus at 500 ppm after 72 to 96 hr by disk diffusion method. Conditions: read-out: IZ. The format is functional.
Experiment [30] deals with Aspergillus flavus. Nature of the experiment: Antimicrobial activity against Aspergillus flavus at 200 ppm after 72 to 96 hr by disk diffusion method. Conditions: read-out: IZ. The format is functional.
For experiment [31], the system named is Aspergillus flavus. The experiment can be described thus: Antimicrobial activity against Aspergillus flavus at 100 ppm after 72 to 96 hr by disk diffusion method. It is filed as functional.
For experiment [32], the system named is Pseudomonas. Nature of the experiment: Antimicrobial activity against Pseudomonas at 500 ppm after 24 hr by disk diffusion method. It is filed as functional. The following applies: read-out: IZ.
The subject of experiment [33] is Pseudomonas. The experiment can be described thus: Antimicrobial activity against Pseudomonas at 200 ppm after 24 hr by disk diffusion method. It is filed as functional. The following applies: read-out: IZ.
Experiment [34] has as its system Pseudomonas. Nature of the experiment: Antimicrobial activity against Pseudomonas at 100 ppm after 24 hr by disk diffusion method. It is filed as functional.
Experiment [35] deals with Klebsiella pneumoniae. The experiment can be described thus: Antimicrobial activity against Klebsiella pneumoniae at 500 ppm after 24 hr by disk diffusion method. It is filed as functional. The following applies: read-out: IZ.
Experiment [36] concerns Klebsiella pneumoniae. Nature of the experiment: Antimicrobial activity against Klebsiella pneumoniae at 200 ppm after 24 hr by disk diffusion method. Conditions: read-out: IZ. It is filed as functional.
In experiment [37] the test system is Klebsiella pneumoniae. The experiment can be described thus: Antimicrobial activity against Klebsiella pneumoniae at 100 ppm after 24 hr by disk diffusion method. The format is functional.
In experiment [38] the test system is Escherichia coli. Nature of the experiment: Antimicrobial activity against Escherichia coli at 500 ppm after 24 hr by disk diffusion method. It is filed as functional. The following applies: read-out: IZ.
Experiment [39] concerns Escherichia coli. The experiment can be described thus: Antimicrobial activity against Escherichia coli at 200 ppm after 24 hr by disk diffusion method. The format is functional. Conditions: read-out: IZ.
The subject of experiment [40] is Escherichia coli. The experiment can be described thus: Antimicrobial activity against Escherichia coli at 100 ppm after 24 hr by disk diffusion method. The format is functional.
In experiment [41] the test system is Shigella flexneri. Nature of the experiment: Antimicrobial activity against Shigella flexneri at 500 ppm after 24 hr by disk diffusion method. The format is functional. The following applies: read-out: IZ.
Experiment [42] relates to Nannizzia gypsea. Nature of the experiment: Antimicrobial activity against Microsporum gypseum at 500 ppm after 72 to 96 hr by disk diffusion method. The format is functional. Conditions: read-out: IZ.
Experiment [43] concerns Nannizzia gypsea. The experiment can be described thus: Antimicrobial activity against Microsporum gypseum at 200 ppm after 72 to 96 hr by disk diffusion method. The format is functional. Conditions: read-out: IZ.
The subject of experiment [44] is Shigella flexneri. The experiment can be described thus: Antimicrobial activity against Shigella flexneri at 200 ppm after 24 hr by disk diffusion method. The following applies: read-out: IZ. It is filed as functional.
Experiment [45] concerns Shigella flexneri. Nature of the experiment: Antimicrobial activity against Shigella flexneri at 100 ppm after 24 hr by disk diffusion method. It is filed as functional. The following applies: read-out: IZ.
Experiment [46] deals with Salmonella typhi. The experiment can be described thus: Antimicrobial activity against Salmonella enterica subsp. enterica serovar Typhi at 500 ppm after 24 hr by disk diffusion method. It is filed as functional. The following applies: read-out: IZ.
In experiment [47] the test system is Salmonella typhi. The experiment can be described thus: Antimicrobial activity against Salmonella enterica subsp. enterica serovar Typhi at 200 ppm after 24 hr by disk diffusion method. The format is functional. The following applies: read-out: IZ.

Activity calls are given as the source filed them. No cut-off for these calls is given here.

On to `O=C(O)c1cn(C2CC2)c2cc(N3CCNCC3)c(F)cc2c1=O` [CIPROFLOXACIN], for which the zone of inhibition at 5 µg/disc in experiment [1] was 23 mm; in [2], 26 mm; in experiment [3], 23 mm; in [4], 22 mm; in [5] it was 23 mm; in experiment [6], 28 mm. Also, the zone of inhibition at 5 µg/disc in [7] amounted to 25 mm.
Take `OC(Cn1cncn1)(Cn1cncn1)c1ccc(F)cc1F` [FLUCONAZOLE]: the “inhibition zone (IZ)” value in experiment [8], in experiment [9], in experiment [10] and in [11] was 20 mm each time.
On to `O=C(/C=C/c1cccc([N+](=O)[O-])c1)c1ccc(N2CCOCC2)cc1`, for which the “inhibition zone (IZ)” value in [12], in experiment [15], in experiment [18], in experiment [21], in [25] and in experiment [28] was “inactive” in each case. Moreover, the “inhibition zone (IZ)” value in experiment [34], in experiment [37] and in experiment [40] was “inactive” each time. Also, the zone of inhibition at 500 ppm amounted to 17 mm in experiment [13]; 22 mm in experiment [16]; 22 mm in experiment [19]; 22 mm in [23]; 22 mm in experiment [26]; 22 mm in experiment [29]. For the same molecule, the zone of inhibition at 500 ppm was 30 mm in [32]; 22 mm in experiment [35]; 22 mm in experiment [38]; 22 mm in experiment [41]; 22 mm in experiment [42]; 17 mm in experiment [46]. In addition, the zone of inhibition at 200 ppm in [14] was 12 mm; in experiment [17], 17 mm; in experiment [20], 17 mm; in experiment [24], 17 mm; in [27], 17 mm; in experiment [30], 17 mm. Also, the zone of inhibition at 200 ppm was found to be 22 mm in [33]; 17 mm in experiment [36]; 17 mm in [39]; 17 mm in experiment [43]; 17 mm in [44]; 12 mm in experiment [47]. For the same molecule, the zone of inhibition at 100 ppm in experiment [22], in experiment [31] (read-out: IZ) and in experiment [45] was 12 mm throughout.
Consider `O=C(/C=C/c1ccc(Cl)cc1)c1ccc(N2CCOCC2)cc1`, for which the “inhibition zone (IZ)” value in [12], in experiment [25] and in experiment [31] was “inactive” each time. Also, the zone of inhibition at 500 ppm in [13] stood at 17 mm; in [16] it was 22 mm; in experiment [19], 22 mm; in experiment [23], 30 mm; in [26], 22 mm; in experiment [29], 30 mm. Besides, the zone of inhibition at 500 ppm in experiment [32] is 30 mm; in experiment [35], 30 mm; in experiment [38], 17 mm; in [41], 22 mm; in experiment [42] it was 22 mm; in [46] it was 22 mm. Further, the zone of inhibition at 200 ppm amounted to 17 mm in [14]; 17 mm in [17]; 17 mm in [20]; 17 mm in experiment [24]; 17 mm in experiment [27]; 22 mm in experiment [30]. In addition, the zone of inhibition at 200 ppm came to 22 mm in experiment [33]; 22 mm in [36]; 17 mm in experiment [39]; 17 mm in experiment [43]; 17 mm in experiment [44]; 17 mm in experiment [47]. Further, the zone of inhibition at 100 ppm in [15] (read-out: IZ) was found to be 12 mm; in experiment [18] (read-out: IZ) it was 12 mm; in [21] (read-out: IZ) it was 12 mm; in experiment [22], 12 mm; in experiment [28] (read-out: IZ), 12 mm; in experiment [34] (read-out: IZ), 17 mm. The zone of inhibition at 100 ppm was 12 mm in experiment [37] (read-out: IZ), 12 mm in [40] (read-out: IZ) and 17 mm in experiment [45].
